Experimental data as given in patent US9914726B2, “2-(2,4-difluorophenyl)-1,1-difluoro-1-(5-substituted-pyridin-2-yl)-3-(1H-tetrazol-1-yl)propan-2-ols and processes for their preparation” (Viamet Pharmaceuticals, Inc., priority 2014, dated 2018).

Columns and labels:
[1] = tested on: Mycosphaerella graminicola; anamorph: Septoria tritici (SEPTTR); assay: Fungicidal activity: leaf blotch of wheat (SEPTTR), wheat seedlings sprayed and inoculated; assay type: in vivo; conditions: 50 ppm, wheat plants (variety Yuma); for SEPTTR 1DP (% disease control rating): 1 Day Protectant; for SEPTTR 3DC (% disease control rating): 3 Day Curative
Description: Technical grades of materials shown in Table 1 below were dissolved in acetone, which were then mixed with nine volumes of water containing 110 ppm Triton X-100. The fungicide solutions were applied onto wheat seedlings using an automated booth sprayer to run-off. All sprayed plants were allowed to air dry prior to further handling. All fungicides were evaluated using the aforementioned method for their activity vs. all target diseases. Wheat plants (variety Yuma) were grown from seed in a greenhouse in 50% mineral soil/50% soil-less Metro mix until the first leaf was fully emerged, with 7-10 seedlings per pot. These plants were inoculated with an aqueous spore suspension of Septoria tritici either prior to or after fungicide treatments. After inoculation the plants were kept in 100% relative humidity (one day in a dark dew chamber followed by two to three days in a lighted dew chamber at 20° C.) to permit spores to germinate and infect the leaf. The plants were then transferred to a greenhouse set at 20° C. for disease to develop. When disease symptoms were fully expressed on the 1st leaves of untreated plants, infection levels were assessed on a scale of 0 to 100 percent disease severity. Percent disease control was calculated using the ratio of disease severity on treated plants relative to untreated plants.

[2] = tested on: Puccinia triticina; synonym: Puccinia recondita f. sp. tritici (PUCCRT); assay: Fungicidal activity: wheat brown rust (PUCCRT), wheat seedlings sprayed and inoculated; assay type: in vivo; conditions: 50 ppm, wheat plants (variety Yuma); for PUCCRT 1DC (% disease control rating): 1 Day Curative; for PUCCRT 1DP (% disease control rating): 1 Day Protectant

Row | Compound | SEPTTR 1DP (% disease control rating) [1] | SEPTTR 3DC (% disease control rating) [1] | PUCCRT 1DC (% disease control rating) [2] | PUCCRT 1DP (% disease control rating) [2]
1 | CC(=O)c1nnnn1CC(O)(c1ccc(F)cc1F)C(F)(F)c1ccc(Oc2ccc(C#N)cc2)cn1 (stereo not shown) [—C(O)Me, 4-((6-(3-(5-acetyl-1H-tetrazol-1-yl)-2-(2,4-difluorophenyl)-1,1-difluoro-2-hydroxypropyl)pyridin-3-yl)oxy)benzonitrile] | A (80-100) | A (80-100) | A (80-100) | A (80-100)
2 | N#Cc1ccc(Oc2ccc(C(F)(F)C(O)(Cn3nnnc3C(=O)c3ccccc3)c3ccc(F)cc3F)nc2)cc1 (stereo not shown) [—C(O)Ph, 4-((6-(3-(5-benzoyl-1H-tetrazol-1-yl)-2-(2,4-difluorophenyl)-1,1-difluoro-2-hydroxypropyl)pyridin-3-yl)oxy)benzonitrile] | C (40-59) | C (40-59) | D (<40) | A (80-100)
3 | CCOC(=O)c1nnnn1CC(O)(c1ccc(F)cc1F)C(F)(F)c1ccc(Oc2ccc(C#N)cc2)cn1 (stereo not shown) [—CO2Et, ethyl 1-(3-(5-(4-cyanophenoxy)pyridin-2-yl)-2-(2,4-difluorophenyl)-3,3-difluoro-2-hydroxypropyl)-1H-tetrazole-5-carboxylate] | A (80-100) | A (80-100) | A (80-100) | A (80-100)
4 | Cc1ccc(S(=O)(=O)c2nnnn2CC(O)(c2ccc(F)cc2F)C(F)(F)c2ccc(Oc3ccc(C#N)cc3)cn2)cc1 (stereo not shown) [—SO2(4-MePh), 4-((6-(2-(2,4-difluorophenyl)-1,1-difluoro-2-hydroxy-3-(5-tosyl-1H-tetrazol-1-yl)propyl)pyridin-3-yl)oxy)benzonitrile] | C (40-59) | D (<40) | A (80-100) | D (<40)
